The molecules below were run against T1, PfJmj3 (Plasmodium falciparum, UniProt Q8IIE4) (assay: Succinate-Glo luciferase-coupled assay).
T1 sequence (Q8IIE4 1-446): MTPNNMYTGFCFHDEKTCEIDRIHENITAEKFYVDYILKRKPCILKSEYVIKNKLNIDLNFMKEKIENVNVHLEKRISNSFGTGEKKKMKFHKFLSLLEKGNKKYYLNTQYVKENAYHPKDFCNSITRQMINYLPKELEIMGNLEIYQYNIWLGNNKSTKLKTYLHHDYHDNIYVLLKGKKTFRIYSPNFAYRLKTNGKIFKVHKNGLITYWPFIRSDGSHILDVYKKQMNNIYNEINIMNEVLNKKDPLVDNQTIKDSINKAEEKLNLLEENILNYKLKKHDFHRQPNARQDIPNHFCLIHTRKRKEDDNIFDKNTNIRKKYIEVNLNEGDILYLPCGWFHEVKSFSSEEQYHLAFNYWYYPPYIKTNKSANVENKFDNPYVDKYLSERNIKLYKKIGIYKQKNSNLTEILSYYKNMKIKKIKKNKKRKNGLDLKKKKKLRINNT
Format: biochemical
With `CN(C)CCCNC(=O)c1ccc(-c2cc(O)c3ncccc3c2)cc1` [ML324] the IC50 was 3300 nM.
For `Clc1ccc(N/N=C(\c2ccccc2)c2ccccn2)nc1` [JIB-04 E], the IC50 was 2600 nM.
With `CC(C)C(=O)NC(c1ccco1)c1ccc2cccnc2c1O` (stereo not drawn) [SD-70] the IC50 was 2400 nM.
